Source: PubChem BioAssay AID1259407 (Chemical Carcinogenesis Research Information System (CCRIS), 2018)
Activity calls are given as the source filed them. No rule for the calls is given here.

System: CCRIS mutagenicity, Ames/micronucleus/aberration tests
Assay: CCRIS mutagenicity studies
[1] = Test System: AMES SALMONELLA TYPHIMURIUM, Strain/Indicator: TA100, Metabolic Activation: NONE, Method: PREINCUBATION
[2] = Test System: AMES SALMONELLA TYPHIMURIUM, Strain/Indicator: TA102, Metabolic Activation: NONE, Method: PREINCUBATION

Measured: mutagenic call

Oc1cccc(O)c1
inactive: End Point: MORPHOLOGICAL TRANSFORMATION, Test System: SYRIAN HAMSTER EMBRYO CELLS (SHE) inactive; negative | End Point: MORPHOLOGICAL TRANSFORMATION, Test System: SYRIAN HAMSTER EMBRYO CELLS (SHE), Metabolic Activation: NONE inactive; negative | Test System: AMES SALMONELLA TYPHIMURIUM, Strain/Indicator: TA97, Metabolic Activation: NONE, Method: PREINCUBATION inactive; negative | Test System: AMES SALMONELLA TYPHIMURIUM, Strain/Indicator: TA97, Metabolic Activation: RAT, LIVER, S-9, PHENOBARBITAL, Method: PREINCUBATION inactive; negative | Test System: AMES SALMONELLA TYPHIMURIUM, Strain/Indicator: TA98, Metabolic Activation: HAMSTER, LIVER, S-9, AROCLOR 1254 (10%), Method: PREINCUBATION inactive; negative | Test System: AMES SALMONELLA TYPHIMURIUM, Strain/Indicator: TA98, Metabolic Activation: NONE inactive; negative | Test System: AMES SALMONELLA TYPHIMURIUM, Strain/Indicator: TA98, Metabolic Activation: NONE, Method: PREINCUBATION inactive; negative | Test System: AMES SALMONELLA TYPHIMURIUM, Strain/Indicator: TA98, Metabolic Activation: RAT, LIVER, S-9, AROCLOR 1254 (10%), Method: PREINCUBATION inactive; negative | Test System: AMES SALMONELLA TYPHIMURIUM, Strain/Indicator: TA98, Metabolic Activation: RAT, LIVER, S-9, PHENOBARBITAL, Method: PREINCUBATION inactive; negative | Test System: AMES SALMONELLA TYPHIMURIUM, Strain/Indicator: TA98, Metabolic Activation: RAT, LIVER, S-9, SODIUM PHENOBARBITAL AND 5,6-BENZOFLAVONE, Method: PREINCUBATION inactive; negative | Test System: AMES SALMONELLA TYPHIMURIUM, Strain/Indicator: TA98, Metabolic Activation: S-9 inactive; negative | Test System: AMES SALMONELLA TYPHIMURIUM, Strain/Indicator: TA100, Metabolic Activation: HAMSTER, LIVER, S-9, AROCLOR 1254 (10%), Method: PREINCUBATION inactive; negative | [1] inactive; negative | Test System: AMES SALMONELLA TYPHIMURIUM, Strain/Indicator: TA100, Metabolic Activation: RAT, LIVER, S-9, AROCLOR 1254 (10%), Method: PREINCUBATION inactive; negative | Test System: AMES SALMONELLA TYPHIMURIUM, Strain/Indicator: TA100, Metabolic Activation: RAT, LIVER, S-9, SODIUM PHENOBARBITAL AND 5,6-BENZOFLAVONE, Method: PREINCUBATION inactive; negative | [2] inactive; negative | Test System: AMES SALMONELLA TYPHIMURIUM, Strain/Indicator: TA102, Metabolic Activation: RAT, LIVER, S-9, SODIUM PHENOBARBITAL AND 5,6-BENZOFLAVONE, Method: PREINCUBATION inactive; negative | Test System: AMES SALMONELLA TYPHIMURIUM, Strain/Indicator: TA104, Metabolic Activation: NONE, Method: PREINCUBATION inactive; negative | Test System: AMES SALMONELLA TYPHIMURIUM, Strain/Indicator: TA104, Metabolic Activation: RAT, LIVER, S-9, SODIUM PHENOBARBITAL AND 5,6-BENZOFLAVONE, Method: PREINCUBATION inactive; negative | Test System: AMES SALMONELLA TYPHIMURIUM, Strain/Indicator: TA1535, Metabolic Activation: HAMSTER, LIVER, S-9, AROCLOR 1254 (10%), Method: PREINCUBATION inactive; negative | Test System: AMES SALMONELLA TYPHIMURIUM, Strain/Indicator: TA1535, Metabolic Activation: NONE, Method: PREINCUBATION inactive; negative | Test System: AMES SALMONELLA TYPHIMURIUM, Strain/Indicator: TA1535, Metabolic Activation: RAT, LIVER, S-9, AROCLOR 1254 (10%), Method: PREINCUBATION inactive; negative | Test System: AMES SALMONELLA TYPHIMURIUM, Strain/Indicator: TA1535, Metabolic Activation: RAT, LIVER, S-9, SODIUM PHENOBARBITAL AND 5,6-BENZOFLAVONE, Method: PREINCUBATION inactive; negative | Test System: AMES SALMONELLA TYPHIMURIUM, Strain/Indicator: TA1537, Metabolic Activation: HAMSTER, LIVER, S-9, AROCLOR 1254 (10%), Method: PREINCUBATION inactive; negative | Test System: AMES SALMONELLA TYPHIMURIUM, Strain/Indicator: TA1537, Metabolic Activation: NONE, Method: PREINCUBATION inactive; negative | Test System: AMES SALMONELLA TYPHIMURIUM, Strain/Indicator: TA1537, Metabolic Activation: RAT, LIVER, S-9, AROCLOR 1254 (10%), Method: PREINCUBATION inactive; negative | Test System: AMES SALMONELLA TYPHIMURIUM, Strain/Indicator: TA1537, Metabolic Activation: RAT, LIVER, S-9, SODIUM PHENOBARBITAL AND 5,6-BENZOFLAVONE, Method: PREINCUBATION inactive; negative | Test System: E. COLI, Strain/Indicator: WP2UVRA/PKM101, Metabolic Activation: NONE, Method: PREINCUBATION inactive; negative | Test System: E. COLI, Strain/Indicator: WP2UVRA/PKM101, Metabolic Activation: RAT, LIVER, S-9, SODIUM PHENOBARBITAL AND 5,6-BENZOFLAVONE, Method: PREINCUBATION inactive; negative | Test System: E. COLI, Strain/Indicator: WP2UVRA, Metabolic Activation: NONE, Method: PREINCUBATION inactive; negative | Test System: E. COLI, Strain/Indicator: WP2UVRA, Metabolic Activation: RAT, LIVER, S-9, SODIUM PHENOBARBITAL AND 5,6-BENZOFLAVONE, Method: PREINCUBATION inactive; negative
active: End Point: In vitro chromosomal aberrations, Test System: Chinese hamster lung (CHL/IU) cells, Metabolic Activation: Rat, Liver, S9, Phenobarbital and 5,6-benzoflavone active; positive (structural changes and ploidy). weak response. | Test System: AMES SALMONELLA TYPHIMURIUM, Strain/Indicator: TA98, Metabolic Activation: RAT, LIVER, S-9, Method: STANDARD PLATE active; positive | Test System: E. COLI, Strain/Indicator: B/R WP2 (TRP-HCR-), Metabolic Activation: RAT, LIVER, S-9, Method: STANDARD PLATE active; positive | Test System: MOUSE LYMPHOMA, Strain/Indicator: L5178Y (TK+/TK-), Metabolic Activation: NONE, Method: SUSPENSION/PLATE active; positive

CN(CC(=O)NN)c1ccc2ccccc2c1
inactive: Test System: AMES SALMONELLA TYPHIMURIUM, Strain/Indicator: TA98, Metabolic Activation: NONE, Method: STANDARD PLATE inactive; negative | Test System: AMES SALMONELLA TYPHIMURIUM, Strain/Indicator: TA98, Metabolic Activation: RAT, LIVER, S-9, AROCLOR 1254, Method: STANDARD PLATE inactive; negative | Test System: AMES SALMONELLA TYPHIMURIUM, Strain/Indicator: TA100, Metabolic Activation: NONE, Method: STANDARD PLATE inactive; negative | Test System: AMES SALMONELLA TYPHIMURIUM, Strain/Indicator: TA100, Metabolic Activation: RAT, LIVER, S-9, AROCLOR 1254, Method: STANDARD PLATE inactive; negative | Test System: AMES SALMONELLA TYPHIMURIUM, Strain/Indicator: TA1537, Metabolic Activation: NONE, Method: STANDARD PLATE inactive; negative | Test System: AMES SALMONELLA TYPHIMURIUM, Strain/Indicator: TA1537, Metabolic Activation: RAT, LIVER, S-9, AROCLOR 1254, Method: STANDARD PLATE inactive; negative

O=[N+]([O-])C1CCCC1
active: Test System: AMES SALMONELLA TYPHIMURIUM, Strain/Indicator: TA100, Metabolic Activation: RAT, LIVER, S-9, AROCLOR, Method: PREINCUBATION active; positive | Test System: UDS RAT HEPATOCYTES, Strain/Indicator: THY INCORP, Metabolic Activation: NONE active; positive
inactive: [1] inactive; negative | [2] inactive; negative | Test System: AMES SALMONELLA TYPHIMURIUM, Strain/Indicator: TA102, Metabolic Activation: RAT, LIVER, S-9, AROCLOR, Method: PREINCUBATION inactive; negative

Fc1ccc2cccnc2c1
active: Test System: AMES SALMONELLA TYPHIMURIUM, Strain/Indicator: TA100, Metabolic Activation: RAT LIVER S-9, PHENOBARBITAL AND 5,6-BENZOFLAVONE, Method: PREINCUBATION active; positive | Test System: AMES SALMONELLA TYPHIMURIUM, Strain/Indicator: TA100, Metabolic Activation: RAT, LIVER, S-9, AROCLOR 1254, Method: PREINCUBATION active; positive | Test System: UDS RODENT HEPATOCYTES, Strain/Indicator: THY INCORP (NON-S-PHASE), Metabolic Activation: NONE, Method: AUTORADIOGRAPHY active; positive
